Test results taken from the NIST ThermoML archive (doi:10.1016/j.jct.2017.10.013).
Values joined by “and” are separate entries in the source; they are usually repeats but may differ in a detail not shown here. Equal entries are not always repeated.

What was measured:
[1] = for molar entropy: 101.33 kPa, Vacuum adiabatic calorimetry; for Triple point temperature: Adiabatic calorimetry
[2] = molar heat capacity at constant pressure; conditions: 101.33 kPa, Vacuum adiabatic calorimetry

[Ho+3].[Ho+3].[Se-2].[Se-2].[Se-2] [holmium selenide (Ho2Se3)]
Conditions | molar entropy, [1] [J/K/mol] | molar heat capacity at constant pressure, [2]
4.75 K, Crystal 3 | – | 4.433 J/K/mol
5 K, Crystal 3 | 1.64 | 5.229 J/K/mol
5.01 K, Crystal 3 | – | 4.889 J/K/mol
5.32 K, Crystal 3 | – | 7.582 J/K/mol
6.03 K, Crystal 2 | 3.189 | 12 J/K/mol and 11.86 J/K/mol
6.03 K, Crystal 3 | 3.189 | 11.86 J/K/mol and 12 J/K/mol
7 K, Crystal 2 | – | 10.5 J/K/mol
7.23 K, Crystal 2 | – | 9.963 J/K/mol
8 K, Crystal 2 | – | 6.9 J/K/mol
8.62 K, Crystal 2 | – | 9.268 J/K/mol
9 K, Crystal 2 | – | 7.3 J/K/mol
10 K, Crystal 2 | 8.227 | 8.4 J/K/mol
10.31 K, Crystal 2 | – | 9.187 J/K/mol
10.68 K, Crystal 2 | – | 9.794 J/K/mol
11.33 K, Crystal 2 | – | 10.14 J/K/mol
12.42 K, Crystal 2 | – | 11.01 J/K/mol
13.07 K, Crystal 2 | – | 11.54 J/K/mol
14.47 K, Crystal 2 | – | 12.75 J/K/mol
15 K, Crystal 2 | 12.67 | 13.14 J/K/mol
16.86 K, Crystal 2 | – | 14.62 J/K/mol
20 K, Crystal 2 | 17.04 | 17.39 J/K/mol
20.03 K, Crystal 2 | – | 17.51 J/K/mol
22.71 K, Crystal 2 | – | 19.72 J/K/mol
25 K, Crystal 2 | 21.4 | 22.07 J/K/mol
25.13 K, Crystal 2 | – | 22.18 J/K/mol
28.04 K, Crystal 2 | – | 25.54 J/K/mol
30 K, Crystal 2 | 25.92 | 27.86 J/K/mol
31.2 K, Crystal 2 | – | 29.55 J/K/mol
34.35 K, Crystal 2 | – | 34.03 J/K/mol
35 K, Crystal 2 | 30.74 | 34.94 J/K/mol
37.49 K, Crystal 2 | – | 38.79 J/K/mol
40 K, Crystal 2 | 35.91 | 42.81 J/K/mol
40.37 K, Crystal 2 | – | 43.37 J/K/mol
43.16 K, Crystal 2 | – | 48 J/K/mol
45 K, Crystal 2 | 41.42 | 50.85 J/K/mol
46.66 K, Crystal 2 | – | 53.47 J/K/mol
50 K, Crystal 2 | 47.18 | 58.65 J/K/mol
51.18 K, Crystal 2 | – | 60.48 J/K/mol
55.76 K, Crystal 2 | – | 66.98 J/K/mol
59.76 K, Crystal 2 | – | 72.46 J/K/mol
60 K, Crystal 2 | 59.16 | 72.86 J/K/mol
63.99 K, Crystal 2 | – | 77.76 J/K/mol
68.39 K, Crystal 2 | – | 82.55 J/K/mol
70 K, Crystal 2 | 71.3 | 84.33 J/K/mol
72.45 K, Crystal 2 | – | 86.7 J/K/mol
76.57 K, Crystal 2 | – | 90.48 J/K/mol
80 K, Crystal 2 | 83.16 | 93.16 J/K/mol
80.18 K, Crystal 2 | – | 93.23 J/K/mol
85.83 K, Crystal 2 | – | 97.43 J/K/mol
90 K, Crystal 2 | 94.54 | 99.99 J/K/mol
91.8 K, Crystal 2 | – | 101 J/K/mol
97.35 K, Crystal 2 | – | 103.9 J/K/mol
100 K, Crystal 2 | 105.4 | 105.2 J/K/mol
102.86 K, Crystal 2 | – | 106.2 J/K/mol
108.72 K, Crystal 2 | – | 108.5 J/K/mol
110 K, Crystal 2 | 115.6 | 109.2 J/K/mol
114.93 K, Crystal 2 | – | 110.9 J/K/mol
120 K, Crystal 2 | 125.2 | 112.4 J/K/mol
121.18 K, Crystal 2 | – | 112.4 J/K/mol
127.91 K, Crystal 2 | – | 114.2 J/K/mol
130 K, Crystal 2 | 134.3 | 114.8 J/K/mol
135.11 K, Crystal 2 | – | 115.7 J/K/mol
140 K, Crystal 2 | 142.9 | 116.5 J/K/mol
142.05 K, Crystal 2 | – | 116.8 J/K/mol
148.79 K, Crystal 2 | – | 117.9 J/K/mol
150 K, Crystal 2 | 151 | 117.9 J/K/mol
155.35 K, Crystal 2 | – | 118.6 J/K/mol
160 K, Crystal 2 | 158.6 | 119 J/K/mol
161.76 K, Crystal 2 | – | 119.2 J/K/mol
168.04 K, Crystal 2 | – | 119.9 J/K/mol
170 K, Crystal 2 | 165.9 | 119.9 J/K/mol
174.8 K, Crystal 2 | – | 120.3 J/K/mol
180 K, Crystal 2 | 172.7 | 120.8 J/K/mol
182.04 K, Crystal 2 | – | 120.9 J/K/mol
189.15 K, Crystal 2 | – | 121.4 J/K/mol
190 K, Crystal 2 | 179.3 | 121.5 J/K/mol
196.14 K, Crystal 2 | – | 122.1 J/K/mol
200 K, Crystal 2 | 185.5 | 122.1 J/K/mol
203.04 K, Crystal 2 | – | 122.2 J/K/mol
209.83 K, Crystal 2 | – | 122.9 J/K/mol
210 K, Crystal 2 | 191.5 | 122.8 J/K/mol
216.54 K, Crystal 2 | – | 123.2 J/K/mol
217.14 K, Crystal 2 | – | 123.4 J/K/mol
220 K, Crystal 2 | 197.3 | 123.6 J/K/mol
220.38 K, Crystal 2 | – | 123.3 J/K/mol
222.96 K, Crystal 2 | – | 123.9 J/K/mol
223.16 K, Crystal 2 | – | 124 J/K/mol
224.88 K, Crystal 2 | – | 124.3 J/K/mol
226.8 K, Crystal 2 | – | 124.9 J/K/mol
228.4 K, Crystal 1 | 201.9 | 125 J/K/mol and 125.2 J/K/mol
228.4 K, Crystal 2 | 201.9 | 125.2 J/K/mol and 125 J/K/mol
229.68 K, Crystal 1 | – | 124.4 J/K/mol
229.7 K, Crystal 1 | – | 124.4 J/K/mol
230 K, Crystal 1 | 202.8 | 124.3 J/K/mol
230.95 K, Crystal 1 | – | 123.6 J/K/mol
232.22 K, Crystal 1 | – | 122.9 J/K/mol
233.8 K, Crystal 1 | – | 123.6 J/K/mol
235.69 K, Crystal 1 | – | 122.7 J/K/mol
236.16 K, Crystal 1 | – | 123.1 J/K/mol
238.19 K, Crystal 1 | – | 123.1 J/K/mol
240 K, Crystal 1 | 208 | 123.1 J/K/mol
241.31 K, Crystal 1 | – | 123.4 J/K/mol
242.82 K, Crystal 1 | – | 122.7 J/K/mol
244.42 K, Crystal 1 | – | 123.3 J/K/mol
249.67 K, Crystal 1 | – | 123.4 J/K/mol
250 K, Crystal 1 | 213 | 123.4 J/K/mol
256.45 K, Crystal 1 | – | 123.6 J/K/mol
260 K, Crystal 1 | 217.9 | 123.6 J/K/mol
263.41 K, Crystal 1 | – | 123.5 J/K/mol
270 K, Crystal 1 | 222.6 | 123.7 J/K/mol
270.54 K, Crystal 1 | – | 123.7 J/K/mol
274.01 K, Crystal 1 | – | 123.6 J/K/mol
276.98 K, Crystal 1 | – | 124 J/K/mol
280 K, Crystal 1 | 227.1 | 123.8 J/K/mol
280.45 K, Crystal 1 | – | 123.7 J/K/mol
284.65 K, Crystal 1 | – | 124 J/K/mol
289.2 K, Crystal 1 | – | 123.9 J/K/mol
290 K, Crystal 1 | 231.4 | 123.9 J/K/mol
293.71 K, Crystal 1 | – | 123.6 J/K/mol
298.15 K, Crystal 1 | 234.8 | 123.9 J/K/mol
298.18 K, Crystal 1 | – | 123.9 J/K/mol
300 K, Crystal 1 | 235.6 | 123.9 J/K/mol
302 K, Crystal 1 | 236.4 | 123.9 J/K/mol
302.6 K, Crystal 1 | – | 124.2 J/K/mol

[1]
Conditions | Triple point temperature [K]
Crystal 2 | 228.4
Crystal 3 | 6.03
